According to ChEMBL document CHEMBL4619798, “Bioreducible Phosphonoamidate Pro-drug Inhibitor of Enolase: Proof of Concept Study” (ACS Med Chem Lett, 2020):

Assays:
[1] = Cytotoxicity against human D423 cells with ENO1 deficient assessed as reduction in cell viability incubated for 5 days by crystal violet staining based spectrophotometry; conditions: 120 h
[2] = Cytotoxicity against human D423 cells with ENO1 deficient assessed as reduction in cell viability incubated for 5 days in presence of 21 % oxygen by crystal violet staining based spectrophotometry; conditions: 120 h
[3] = Cytotoxicity against human D423 cells with ENO1 deficient assessed as reduction in cell viability incubated for 5 days in presence of 1 % oxygen by crystal violet staining based spectrophotometry; conditions: 120 h
[4] = Stability in human plasma assessed as formation of monoester metabolite measured at less than 30 mins by NMR analysis; format: ADME, cell-free; conditions: 0.5 h
[5] = Stability in human plasma assessed as formation of monoester metabolite measured upto 22 hrs by NMR analysis; format: ADME, cell-free

Compound `CC(C)(C)C(=O)OCOP(=O)(OCOC(=O)C(C)(C)C)C1CCCN(O)C1=O` (stereo unspecified) has an IC50 [1] of 38 nM, an IC50 [2] of 79 nM and an IC50 [3] of 201 nM. For the same compound, the Stability [4] was “Unstable”.

With `O=C1C(P(=O)(O)O)CCCN1O` (stereo unspecified) the IC50 [1] was 11800 nM.

In the case of `CC(=O)ON1CCCC(P(=O)(NCc2ccccc2)OCc2ccc([N+](=O)[O-])o2)C1=O` (stereo unspecified), the IC50 [2] is reported as 299 nM, the IC50 [3] is reported as 136 nM and the Stability [5] is reported as “Stable”.

Work on `CC(C)(C)C(=O)OCOP(=O)(NCc1ccccc1)C1CCCN(O)C1=O` (stereo unspecified) yielded an IC50 [1] of 98 nM.

Compound `Cn1c(COP(=O)(NCCBr)NCCBr)cnc1[N+](=O)[O-]` [EVOFOSFAMIDE] has an IC50 [2] of 3200 nM and an IC50 [3] of 404 nM.
